What all share (assay): In vitro antifungal activity, microbroth dilution MIC
Holding throughout (assay type): cell-based
(Dilution methods test growth across graded concentrations, often in twofold steps.)

For experiment [1], the system named is Trichophyton mentagrophytes A. 9129. Particulars: 4 to 48 hours; for Minimal inhibitory concentration (MIC): T. mentagrophytes A. 9129, RPMI-1640, 35° C. A digest of the protocol: (§1)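 Broth microdilution adapted from NCCLS M27, in RPMI-1640 with 0.165 M MOPS, pH 7.0. Yeast or mould inoculum at 2×10^3 CFU/ml was mixed 1:1 with DMSO-derived compound solutions (200 to 0.10 μg/ml before mixing) and incubated at 35 °C for 4 to 48 h. MIC was the concentration showing no growth.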

For experiment [2], the system named is Candida pseudotropicalis K. 11658. Particulars: 4 to 48 hours; for Minimal inhibitory concentration (MIC): C. pseudotropicalis K. 11658, RPMI-1640, 35° C. The procedure, abridged:
as §1

For experiment [3], the system named is Aspergillus furnigatus B. 19119. To be noted: 4 to 48 hours; for Minimal inhibitory concentration (MIC): A furnigatus B. 19119, RPMI-1640, 35° C. A digest of the protocol: as §1
The test system of experiment [4] is Cryptococcus neoformans IFM. 40092. Particulars: 4 to 48 hours; for Minimal inhibitory concentration (MIC): Cry. neoformans IFM. 40092, RPMI-1640, 35° C. The procedure, abridged: as §1
Experiment [5] concerns Cryptococcus neoformans B. 42419. Particulars: 4 to 48 hours; for Minimal inhibitory concentration (MIC): Cry. neoformans B. 42419, RPMI-1640, 35° C. A digest of the protocol:
as §1

Experiment [6] has as its system Torulopsis glabrata B. 16205. Particulars: 4 to 48 hours; for Minimal inhibitory concentration (MIC): T. glabrata B. 16205, RPMI-1640, 35° C. A digest of the protocol: as §1
In experiment [7] the test system is Candida parapsitosis A. 7330. To be noted: 4 to 48 hours; for Minimal inhibitory concentration (MIC): C. parapsitosis A. 7330, RPMI-1640, 35° C. The procedure, abridged:
as §1

Experiment [8] deals with Trichophyton mentagrophytes B. 32663. Particulars: 4 to 48 hours; for Minimal inhibitory concentration (MIC): T. mentagrophytes B. 32663, RPMI-1640, 35° C. A digest of the protocol:
as §1

Experiment [9] relates to Cryptococcus neoformans A. 34144. To be noted: 4 to 48 hours; for Minimal inhibitory concentration (MIC): Cry. neoformans A. 34144, RPMI-1640, 35° C. A digest of the protocol: as §1
The test system of another experiment is Candida krusei K. 11655. Particulars: 4 to 48 hours; for Minimal inhibitory concentration (MIC): C. krusei K. 11655, RPMI-1640, 35° C. The procedure, abridged:
as §1

Experiment [10] concerns Candida tropicalis A. 13803. Particulars: 4 to 48 hours; for Minimal inhibitory concentration (MIC): C. tropicalis A. 13803, RPMI-1640, 35° C. The procedure, abridged:
as §1

In experiment [11] the test system is Aspergillus niger A. 16404. To be noted: 4 to 48 hours; for Minimal inhibitory concentration (MIC): A. niger A. 16404, RPMI-1640, 35° C. A digest of the protocol:
as §1

The next experiment relates to Candida albicans C1-2. Particulars: 4 to 48 hours; for Minimal inhibitory concentration (MIC): C. albicans C1-2, RPMI-1640, 35° C. A digest of the protocol: as §1
Experiment [12] concerns Candida albicans IFO. 1385. Particulars: 4 to 48 hours; for Minimal inhibitory concentration (MIC): C. albicans IFO. 1385, RPMI-1640, 35° C. The procedure, abridged:
as §1

Experiment [13] has as its system Candida albicans A. 10231. Particulars: 4 to 48 hours; for Minimal inhibitory concentration (MIC): C. albicans A. 10231, RPMI-1640, 35° C. A digest of the protocol:
as §1

[14] abbreviates: RPMI-1640, 35° C., no growth observed.

Structures are written as SMILES. ≈ marks a conversion by molar mass, not a printed value.

Regarding `FC(=Cc1ccc2c(c1)OCO2)OCC1COC(Cn2ccnc2)(c2ccc(Cl)cc2Cl)O1` (stereo not drawn) [Ex. 12], the “Minimal inhibitory concentration (MIC)” value in [1] was 0.78 µg/mL (≈ 1.58 µM); in experiment [2], 3.13 µg/mL (≈ 6.34 µM); in [3] it was 1.56 µg/mL (≈ 3.16 µM); in [4], 0.39 µg/mL (≈ 0.791 µM); in experiment [5] it was 0.78 µg/mL (≈ 1.58 µM); in [6], 6.25 µg/mL (≈ 12.7 µM). In addition, the “Minimal inhibitory concentration (MIC)” value is 6.25 µg/mL (≈ 12.7 µM) in experiment [7]; 0.78 µg/mL (≈ 1.58 µM) in [8]; 1.56 µg/mL (≈ 3.16 µM) in [9]; 6.25 µg/mL (≈ 12.7 µM) with Candida krusei K. 11655; 50.0 µg/mL (≈ 101 µM) in experiment [10]; 3.13 µg/mL (≈ 6.34 µM) in experiment [11]. For the same molecule, the entries for the “Minimal inhibitory concentration (MIC)” value (with Candida albicans C1-2; in [12]; in [13]) were 25.0 µg/mL (≈ 50.7 µM), 1.56 µg/mL (≈ 3.16 µM) and 12.5 µg/mL (≈ 25.3 µM), respectively.

As for `Cc1ccc(C(=C(F)Oc2ccc(OCC3COC(Cn4ccnc4)(c4ccc(F)cc4F)O3)cc2)C(F)(F)F)cc1C` (mixture of isomers) [Ex. 110], the “Minimal inhibitory concentration(MIC), T. mentagrophytes A. 9129” value in experiment [1] (setting [14]) came out at 6.25 µg/mL. Also, the “Minimal inhibitory concentration(MIC), C. pseudotropicalis K. 11658” value in experiment [2] (setting [14]) is over 100 µg/mL. The “Minimal inhibitory concentration(MIC), A furnigatus B. 19119” value in experiment [3] (setting [14]) is over 100 µg/mL. Also, the “Minimal inhibitory concentration(MIC), Cry. neoformans IFM. 40092” value in [4] (setting [14]) turned out to be 0.39 µg/mL. Further, the “Minimal inhibitory concentration(MIC), Cry. neoformans B. 42419” value in experiment [5] (setting [14]) worked out at 3.13 µg/mL. Moreover, the “Minimal inhibitory concentration(MIC), T. glabrata B. 16205” value in experiment [6] (setting [14]) was 100 µg/mL. Further, the “Minimal inhibitory concentration(MIC), C. parapsitosis A. 7330” value in experiment [7] (setting [14]) was over 100 µg/mL. The “Minimal inhibitory concentration(MIC), T. mentagrophytes B. 32663” value in experiment [8] (setting [14]) was 3.13 µg/mL. Besides, the “Minimal inhibitory concentration(MIC), Cry. neoformans A. 34144” value in experiment [9] (setting [14]) came to 1.56 µg/mL. The “Minimal inhibitory concentration(MIC), C. krusei K. 11655” value with Candida krusei K. 11655 (setting [14]) was over 100 µg/mL. Further, in experiment [10] (setting [14]), the “Minimal inhibitory concentration(MIC), C. tropicalis A. 13803” value was over 100 µg/mL. Also, the “Minimal inhibitory concentration(MIC), A. niger A. 16404” value in experiment [11] (setting [14]) is over 100 µg/mL. The “Minimal inhibitory concentration(MIC), C. albicans C1-2” value in the experiment on Candida albicans C1-2 (setting [14]) came out at 50.0 µg/mL. Besides, the “Minimal inhibitory concentration(MIC), C. albicans IFO. 1385” value in [12] (setting [14]) came out at 3.13 µg/mL. For the same molecule, the “Minimal inhibitory concentration(MIC), C. albicans A. 10231” value in experiment [13] (setting [14]) was 100 µg/mL.

Consider `FC(OCC1COC(Cn2ccnc2)(c2ccc(Cl)cc2Cl)O1)=C(c1ccc(F)cc1)C(F)(F)F` (mixture of isomers) [Ex. 33], for which the “Minimal inhibitory concentration (MIC)” value in experiment [1] worked out at 25.0 µg/mL; in experiment [2], 100 µg/mL; in experiment [3], 100 µg/mL; in [4], 0.78 µg/mL; in experiment [5] it was 1.56 µg/mL; in experiment [6], 25.0 µg/mL. The “Minimal inhibitory concentration (MIC)” value in experiment [7] is over 100 µg/mL; in experiment [8], 12.5 µg/mL; in experiment [9], 1.56 µg/mL; in the experiment with Candida krusei K. 11655, 100 µg/mL; in experiment [10], 50.0 µg/mL; in experiment [11], 100 µg/mL. The “Minimal inhibitory concentration (MIC)” value in the experiment with Candida albicans C1-2 came out at 12.5 µg/mL; in experiment [12], 1.56 µg/mL; in [13], 6.25 µg/mL.
